Experimental data from patent US7479478B2, “Human parathyroid hormone modifications, preparation and use” (The General Hospital Corporation, priority 1998, dated 2009).
“Also recorded” adds a separate entry of the source. No end group written: not given here.

Assays:
human PTH-1 receptors [1] = molecular target: T1, human PTH-1 receptors (Homo sapiens, UniProt Q03431); experiment: PLC activation (IP3 formation) in HKRK B7 cells; format: cell-based; settings: HKRK B7 cells
T1 construct: expressed in transfected cells
T1 sequence (Q03431 27-593): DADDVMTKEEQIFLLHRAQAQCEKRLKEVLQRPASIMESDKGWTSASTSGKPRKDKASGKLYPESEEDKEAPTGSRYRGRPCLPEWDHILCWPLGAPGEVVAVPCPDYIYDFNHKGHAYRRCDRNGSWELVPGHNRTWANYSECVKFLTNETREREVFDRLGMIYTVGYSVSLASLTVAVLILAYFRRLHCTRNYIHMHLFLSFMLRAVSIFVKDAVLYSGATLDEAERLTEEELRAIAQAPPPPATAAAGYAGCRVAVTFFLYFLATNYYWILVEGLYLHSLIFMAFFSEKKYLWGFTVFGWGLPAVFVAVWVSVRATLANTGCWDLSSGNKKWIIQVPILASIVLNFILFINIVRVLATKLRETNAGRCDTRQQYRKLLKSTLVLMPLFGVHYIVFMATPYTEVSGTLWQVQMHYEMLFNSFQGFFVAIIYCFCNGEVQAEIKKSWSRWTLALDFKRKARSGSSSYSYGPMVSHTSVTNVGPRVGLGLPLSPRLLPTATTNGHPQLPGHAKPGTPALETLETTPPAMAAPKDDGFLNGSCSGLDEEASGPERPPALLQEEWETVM
Experimental: (§1) HKRK B7 or EW5 cells (32), subclones of LLC-PKI renal epithelial cells that stably express human or rat PTH-1 receptors (950,000 and 320,000 receptors/cell, respectively), were maintained under 5% CO2 in air in Dulbecco's modified essential medium containing 7% fetal bovine serum (FBS) and 1% penicillin/streptomycin (GIBCO-BRL, Grand Island, N.Y.). HEK-293 and COS-7 cells were cultured similarly, except that 10% FBS was used in the medium. Cells were seeded into 24-well plates two days before assay at a density of 2-2.5×10^5 cells/well (HKRK B7 or EW 5 cells) or 6×10^5 cells/well (in 6-well plates) (HEK-293 cells). In experiments involving HEK-293 cells, DNA transfections were performed 24 hr after plating and inositol radiolabel was added 24 hr thereafter (see below). COS-7 cell transfections were performed as previously described (Gardella, T. J., et al., Endocrinology 132(5):2024-2030 (1993))
PLC was activated by PTH agonists in the presence of 30 mM LiCl at 37° C. for 30 min after 16 hr of labeling with [^3H]myo-inositol (3 uCi/ml) in serum-free medium containing 0.1% bovine serum albumin. The reactions were stopped by rapid aspiration and addition of cold 5% TCA. Water-soluble radiolabeled inositol trisphosphate (IP3) was isolated after ether extraction by ion-exchange chromatography (Guo, J., et al., Endocrinology 136(9):3884-3891 (1995)). In experiments involving HEK 293 cells, cells previously transfected with human PTHR cDNA (in the pcDNA1 expression vector HKRK) using Lipofectamine (Gibco BRL) were labeled with [^3H]myo-inositol and assayed as described above, except that total water-soluble [^3H]inositol polyphosphates were collected as a single fraction from the ion-exchange columns.

human PTH-1 receptors [2] = molecular target: T1, human PTH-1 receptors; experiment: Intracellular cAMP accumulation (adenylyl cyclase, AC, activation) in HKRK B7 cells; format: cell-based; settings: HKRK B7 cells; for AC activation (cAMP accumulation), result in words: compared with hPTH-(1-34) or parent peptide
Experimental: as §1, with “(1993)) Intracellular cAMP accumulation, PLC activation and PTHR binding affinity were measured as previously reported (Bringhurst, F. R., et al., Endocrinology 132(5):2090-2098 (1993); Guo, J., et al., Endocrinology 136(9):3884-3891 (1995)). Intracellular cAMP accumulation was measured in extracts of cells that were exposed to human PTH peptides in the presence of isobutylmethyxanthine (IBMX, 1 mM) at 37° C. for 15 min. After terminating the reactions by aspiration and freezing in liquid nitrogen, cell monolayers were extracted with 50 mM HCl and cAMP was measured using a radioimmunoassay kit (Dupont-New England Nuclear, Boston, Mass.).” for “(1993))”

Row | Substance | fold reduction of PLC potency versus hPTH(1-34) (human PTH-1 receptors [1]) | PLC activation (IP3 formation), result in words (human PTH-1 receptors [1]; up to 1000 nM or 10 μM) | AC activation (cAMP accumulation), result in words (human PTH-1 receptors [2]) | fold less potent than hPTH-(1-29) in PLC activation (human PTH-1 receptors [1]) | EC50 (human PTH-1 receptors [1]; read-out: EC50 for PLC activity) [µM] | EC50 (human PTH-1 receptors [2]) [µM]
1 | GVSEIQLMHNLGKHLNSMRRVEWLRKKL [[Gly^1,Arg^19]hPTH-(1-28)] | approximately 100 fold | no increase in PLC activity; also recorded: strikingly and selectively impaired | indistinguishable from that of hPTH-(1-34) and equivalent to that by hPTH(1-34) and full | – | – | –
2 | SVSEIQLMHNLGKHLNSMERVEWLRKKL-NH2 [hPTH-(1-28)] | – | – | as effectively as did hPTH-(1-34) | approximately 5 fold | 6 | 0.001
